Test results as given in patent publication US20150291598A1 (NOVARTIS AG, priority 2012, published 2015).

What follows are molecules tested on P. falciparum (NF54 or 3D7 strain) (assay: Assay for P. falciparum proliferation in infected human blood cells (SYBR Green)). Conditions: Plasmodium falciparum, Erythrocyte, 72 h, NF54 or 3D7 infected human erythrocytes, 72 hours; read-out: EC50 (nM), inhibitory efficacy in delaying P. falciparum proliferation in infected human blood cells.
Assay type: cell-based, Plasmodium falciparum
How it was run: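 NF54 or 3D7 parasites in O+ human erythrocytes at 2.5% hematocrit and 0.3% parasitemia final, exposed to compounds 72 h at 37 °C under 93% N2/4% CO2/3% O2.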

SMILES	EC50 [nM]
Cc1ncccc1N(C)C(=O)c1cn2c(-c3ccc(C(F)(F)F)cc3)cnc2cn1 [Compound 420, N-methyl-N-(2-methylpyridin-3-yl)-3-[4-(trifluoromethyl)phenyl]imidazo[1,2-a]pyrazine-6-carboxamide]	> 10000
CCc1ccnc(NC(=O)c2cn3c(-c4ccc(C(F)(F)F)cc4)cnc3cn2)c1 [Compound 334, N-(4-ethylpyridin-2-yl)-3-[4-(trifluoromethyl)phenyl]imidazo[1,2-a]pyrazine-6-carboxamide]	> 5190
CCn1nccc1NC(=O)c1cn2c(-c3ccc(C(F)(F)F)cc3)cnc2cn1 [Compound 368, N-(1-ethyl-1H-pyrazol-5-yl)-3-[4-(trifluoromethyl)phenyl]imidazo[1,2-a]pyrazine-6-carboxamide]	7040
O=C1CN(C(=O)c2cn3c(-c4ccc(C(F)(F)F)cc4)cnc3cn2)c2ccccc2N1 [Compound 497, 4-({3-[4-(trifluoromethyl)phenyl]imidazo[1,2-a]pyrazin-6-yl}carbonyl)-1,2,3,4-tetrahydroquinoxalin-2-one]	> 9320
CN(C(=O)c1cn2c(-c3cccc(F)n3)cnc2cn1)c1ccc(C#N)cc1 [Compound 351, N-(4-cyanophenyl)-3-(6-fluoropyridin-2-yl)-N-methylimidazo[1,2-a]pyrazine-6-carboxamide]	5620
CN(C(=O)c1cn2c(-c3cnc4c(c3)ncn4C)cnc2cn1)c1ccc(C#N)cc1 [Compound 203, N-(4-cyanophenyl)-N-methyl-3-{3-methyl-3H-imidazo[4,5-b]pyridin-6-yl}imidazo[1,2-a]pyrazine-6-carboxamide]	6490
CN(C(=O)c1cn2c(-c3ccc(C(F)(F)F)cc3)cnc2cn1)c1ccc(Cl)nn1 [Compound 94, N-(6-chloropyridazin-3-yl)-N-methyl-3-[4-(trifluoromethyl)phenyl]imidazo[1,2-a]pyrazine-6-carboxamide]	> 10000
CN(C(=O)c1cn2c(-c3ccc(C(F)(F)F)cc3)cnc2cn1)c1ccc(C#N)c(Cl)c1 [Compound 502, N-(3-chloro-4-cyanophenyl)-N-methyl-3-[4-(trifluoromethyl)phenyl]imidazo[1,2-a]pyrazine-6-carboxamide]	2000
COc1cncc(-c2cnc3cnc(C(=O)N(C)c4ccc(C#N)cc4)cn23)n1 [Compound 335, N-(4-cyanophenyl)-3-(6-methoxypyrazin-2-yl)-N-methylimidazo[1,2-a]pyrazine-6-carboxamide]	5340
Cc1nc(C(=O)N2CCCc3cc(F)ccc32)cn2c(-c3ccc(C(F)(F)F)cc3)cnc12 [Compound 411, 6-fluoro-1-({8-methyl-3-[4-(trifluoromethyl)phenyl]imidazo[1,2-a]pyrazin-6-yl}carbonyl)-1,2,3,4-tetrahydroquinoline]	> 7570
CN(C(=O)c1cn2c(-c3ccc(N4CCOCC4)cc3)cnc2cn1)c1ccc(Cl)nc1 [Compound 340, N-(6-chloropyridin-3-yl)-N-methyl-3-[4-(morpholin-4-yl)phenyl]imidazo[1,2-a]pyrazine-6-carboxamide]	6850
CN(C(=O)c1cn2c(-c3ccc(C(F)(F)F)cc3)cnc2cn1)c1ccc(-c2cnn(C)c2)cc1 [Compound 51, N-methyl-N-[4-(1-methyl-1H-pyrazol-4-yl)phenyl]-3-[4-(trifluoromethyl)phenyl]imidazo[1,2-a]pyrazine-6-carboxamide]	> 9720
CN(C(=O)c1cn2c(-c3ccc(C(F)(F)F)cc3)cnc2cn1)c1ccc(-n2ccc(C(F)(F)F)n2)cc1 [Compound 206, -methyl-N-{4-[3-(trifluoromethyl)-1H-pyrazol-1-yl]phenyl}-3-[4-(trifluoromethyl)phenyl]imidazo[1,2-a]pyrazine-6-carboxamide]	> 9760
CN(C(=O)c1cn2c(-c3cccc(C#N)c3)cnc2cn1)c1ccc(C#N)cc1 [Compound 191, 3-(3-cyanophenyl)-N-(4-cyanophenyl)-N-methylimidazo[1,2-a]pyrazine-6-carboxamide]	7730

More lines, in order of falling EC50, values ahead:

EC50 [nM]	SMILES
4340	CN(C(=O)c1cn2c(-c3ccc(-c4nnn[nH]4)cc3)cnc2cn1)c1ccc(C#N)cc1 [Compound 180, N-(4-cyanophenyl)-N-methyl-3-[4-(1H-1,2,3,4-tetrazol-5-yl)phenyl]imidazo[1,2-a]pyrazine-6-carboxamide]
3260	CN(c1cn2c(-c3ccc(C(F)(F)F)cc3)cnc2cn1)S(=O)(=O)c1ccc(C#N)cc1 [Compound 347, 4-cyano-N-methyl-N-{3-[4-(trifluoromethyl)phenyl]imidazo[1,2-a]pyrazin-6-yl}benzene-1-sulfonamide]
2640	CN(C(=O)c1cn2c(-c3cnc4[nH]ccc4c3)cnc2cn1)c1ccc(Cl)nc1 [Compound 312, N-(6-chloropyridin-3-yl)-N-methyl-3-{1H-pyrrolo[2,3-b]pyridin-5-yl}imidazo[1,2-a]pyrazine-6-carboxamide]
2480	CCOc1ccnc(N(C)C(=O)c2cn3c(-c4ccc(C(F)(F)F)cc4)cnc3cn2)c1 [Compound 310, N-(4-ethoxypyridin-2-yl)-N-methyl-3-[4-(trifluoromethyl)phenyl]imidazo[1,2-a]pyrazine-6-carboxamide]
1560	CN(C(=O)c1cn2c(-c3ccc4[nH]cnc4c3)cnc2cn1)c1ccc(C#N)cc1 [Compound 143, 3-(1H-1,3-benzodiazol-5-yl)-N-(4-cyanophenyl)-N-methylimidazo[1,2-a]pyrazine-6-carboxamide]
828	CN(C(=O)c1cn2c(-c3ccc(C(F)(F)F)cc3)cnc2cn1)c1ccc(OC(F)F)cc1 [Compound 50, N-[4-(difluoromethoxy)phenyl]-N-methyl-3-[4-(trifluoromethyl)phenyl]imidazo[1,2-a]pyrazine-6-carboxamide]
826	COc1ccc(-c2cnc3cnc(C(=O)N(C)c4ccc(C#N)cc4)cn23)cn1 [Compound 90, N-(4-cyanophenyl)-3-(6-methoxypyridin-3-yl)-N-methylimidazo[1,2-a]pyrazine-6-carboxamide]
564	CN(C(=O)c1cn2c(-c3ccc(C(F)(F)F)cc3)cnc2cn1)c1ccc(C#N)nc1 [Compound 147, N-(6-cyanopyridin-3-yl)-N-methyl-3-[4-(trifluoromethyl)phenyl]imidazo[1,2-a]pyrazine-6-carboxamide]
454	COc1cccnc1N(C)C(=O)c1cn2c(-c3ccc(C(F)(F)F)cc3)cnc2cn1 [Compound 16, N-(3-methoxypyridin-2-yl)-N-methyl-3-[4-(trifluoromethyl)phenyl]imidazo[1,2-a]pyrazine-6-carboxamide]
297	COc1ccc(-c2cnc3cnc(C(=O)N(C)c4ccc(Cl)nc4)cn23)cc1 [Compound 100, N-(6-chloropyridin-3-yl)-3-(4-methoxyphenyl)-N-methylimidazo[1,2-a]pyrazine-6-carboxamide]
237	CN(C(=O)c1cn2c(-c3ccc(NC(=O)CN)nc3)cnc2cn1)c1ccc(C#N)cc1 [Compound 295, 3-[6-(2-aminoacetamido)pyridin-3-yl]-N-(4-cyanophenyl)-N-methylimidazo[1,2-a]pyrazine-6-carboxamide]
226	COC(=O)Nc1ccc(-c2cnc3cnc(C(=O)N(C)c4ccc(Cl)nc4)cn23)cc1 [Compound 245, methyl N-(4-{6-[(6-chloropyridin-3-yl)(methyl)carbamoyl]imidazo[1,2-a]pyrazin-3-yl}phenyl)carbamate]
215	CC(=O)Nc1ccc(-c2cnc3cnc(CN(C)c4ccc(C)cn4)cn23)cn1 [Compound 242, N-[5-(6-{[methyl(5-methylpyridin-2-yl)amino]methyl}imidazo[1,2-a]pyrazin-3-yl)pyridin-2-yl]acetamide]
202	CN(C(=O)c1cn2c(-c3ccc(OC(F)F)cc3)cnc2cn1)c1ccc(F)c(F)c1 [Compound 142, 3-[4-(difluoromethoxy)phenyl]-N-(3,4-difluorophenyl)-N-methylimidazo[1,2-a]pyrazine-6-carboxamide]
181	CN(C(=O)c1cn2c(-c3ccc(C(F)(F)F)cc3)cnc2cn1)c1ccc(Cl)nc1 [Compound 78, N-(6-chloropyridin-3-yl)-N-methyl-3-[4-(trifluoromethyl)phenyl]imidazo[1,2-a]pyrazine-6-carboxamide]
128	O=C(c1cn2c(-c3ccc(C(F)(F)F)cc3)cnc2cn1)N1CCCc2cc(F)ccc21 [Compound 111, 6-fluoro-1-({3-[4-(trifluoromethyl)phenyl]imidazo[1,2-a]pyrazin-6-yl}carbonyl)-1,2,3,4-tetrahydroquinoline]
78	CN(Cc1cn2c(-c3ccc(Cl)cc3)cnc2cn1)c1ccc(F)cc1 [Compound 18, N-{[3-(4-chlorophenyl)imidazo[1,2-a]pyrazin-6-yl]methyl}-4-fluoro-N-methylaniline]
74	CN(Cc1cn2c(-c3ccc(C(F)(F)F)cc3)cnc2cn1)c1ccc(Cl)nc1 [Compound 231, 6-chloro-N-methyl-N-({3-[4-(trifluoromethyl)phenyl]imidazo[1,2-a]pyrazin-6-yl}methyl)pyridin-3-amine]
41	CN(C(=O)c1cn2c(-c3ccc(C(F)(F)F)cc3)cnc2cn1)c1ccc(F)c(F)c1 [Compound 105, N-(3,4-difluorophenyl)-N-methyl-3-[4-(trifluoromethyl)phenyl]imidazo[1,2-a]pyrazine-6-carboxamide]
29	CN(C(=O)c1cn2c(-c3ccc(-c4nnc(N)o4)cc3)cnc2cn1)c1ccc(Cl)cc1 [Compound 15, -[4-(5-amino-1,3,4-oxadiazol-2-yl)phenyl]-N-(4-chlorophenyl)-N-methylimidazo[1,2-a]pyrazine-6-carboxamide]
25	CN(C(=O)c1cn2c(-c3ccc4c(cnn4C)c3)cnc2cn1)c1ccc(Cl)cc1 [Compound 480, N-(4-chlorophenyl)-N-methyl-3-(1-methyl-1H-indazol-5-yl)imidazo[1,2-a]pyrazine-6-carboxamide]
